{"source": "paper PMC7311461", "about": "“Cyclophilin D binds to the acidic C-terminus region of α-Synuclein and affects its aggregation characteristics” (Scientific Reports, 2020)", "key": {"[1]": {"system": "αSyn", "details": "cited from earlier work", "source_text": "(§1) Proteins currently known to dissociate amyloid fibrils do so in either an ATP-dependent or –independent manner. Examples of the former include Hsp70, whereas the latter mode can be found in Cyclophilin 40 (Cyp40)[14],[15]. […] The effects of Cyp40 on the tau and αSyn fibrils were attributed to its peptidyl-prolyl isomerase activity. […] An emerging picture is that agents that prevent aggregation can also dissemble amyloid fibrils. […] Human Cyp40 is a multidomain protein consisting of the catalytic isomerase domain followed by four tetratricopeptide repeats. Through mutagenesis, the isomerase domain was identified as being responsible for this disaggregating activity[15] as is also shown here for CypD. CypD also interacts directly with the Alz ..."}, "[2]": {"system": "amyloid-β (Aβ)", "details": "cited from earlier work", "source_text": "as §1"}, "[3]": {"system": "αSyn", "details": "cited from earlier work", "source_text": "While the aggregation processes are well studied the same is not true for disaggregation. […] EGCG binding to the C-terminus stabilises the αSyn monomeric state and shifts the monomer-fibril equilibrium towards the less aggregated forms. […] Human Cyp40 is a multidomain protein consisting of the catalytic isomerase domain followed by four tetratricopeptide repeats. Through mutagenesis, the isomerase domain was identified as being responsible for this disaggregating activity[15] as is also shown here for CypD. CypD also interacts directly with the Alz ...", "remark": "listed apart in the source"}, "[4]": {"system": "αSynC peptide (cis-trans isomerisation by CypD)", "assay": "NMR detection of αSynC cis-trans isomerisation (1D line-broadening, 2D NOESY exchange cross-peaks)", "format": "biochemical", "details": "αSynC 1 mM, CypD 50uM, CsA 100uM, 283 K", "protocol": "(§2) NMR spectra were acquired on Bruker Avance III 800 MHz spectrometer equipped with [^1H, ^15N, ^13C]-cryoprobes. 1D and 2D spectra of αSyn peptide were performed using 1 mM peptide dissolved in 20 mM phosphate, 20 mM NaCl pH 6.5 at 298 K or 283 K. Resonance assignments of the proton spectra of αSyn peptide were obtained using ^1H-^1H 2D TOCSY (mixing time 60 ms) and NOESY spectra (mixing time 350 ms). […] The same buffer was used for obtaining the ^1H-^15N spectra of ^15N-labelled αSyn at 298 K. Experiments using ^15N-labelled αSyn fibrils were performed at 288 K. ^2H/^15N-labelled CypD was used to make the complex with intact αSyn in order to achieve the optimal conditions to observe shift perturbations, taking into account the size of the complex (~32kD). Backbone ^1H and ^15N resonances of CypD and αSyn were assigned using standard triple resonance to those assigned by ^13C, ^15N, ^1H-triple resonance HNCA, HN(CO)CA, HNCO, HN(CA)CO, CBCA(CO)NH, and CBCANH experiments."}, "[5]": {"system": "αSyn effects on mitochondria / MPTP", "details": "cited from earlier work", "source_text": "Cyclophilin D (CypD) is a mitochondrial peptidyl-prolyl isomerase that has been implicated to be involved in the mechanisms of many diseases, although it is best known as a regulator for the opening of the mitochondria permeability transition pore (MPTP). […] Co-immunoprecipitation experiments ..."}, "[6]": {"biological_target": "T1, CypD (Homo sapiens, UniProt P30405)", "T1 construct": "His tag (TEV-cleavable, pETM11 vector) (cleaved yes); made in house; host or cells: E. coli BL21 (DE3)", "T1 sequence (P30405 43-207)": "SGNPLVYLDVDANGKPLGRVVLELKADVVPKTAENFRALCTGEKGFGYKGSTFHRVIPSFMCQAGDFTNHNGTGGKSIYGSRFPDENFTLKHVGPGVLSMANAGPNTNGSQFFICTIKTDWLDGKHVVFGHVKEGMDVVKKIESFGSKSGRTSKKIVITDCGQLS", "assay": "Isothermal titration calorimetry, binding to CypD wild-type", "details": "10°C, 20 mM phosphate, 20 mM NaCl, pH 6.5", "protocol": "All ITC experiments were carried out at 10°C on an ITC200 Microcalorimeter (GE Healthcare). The buffer used was 20 mM phosphate, 20 mM NaCl at pH 6.5. Each experiment consisted of an initial injection of 0.5 µL, followed by fifteen 2.39 µL injections before a final injection of 1.89 µL. Control experiments were performed whereby each compound was titrated into buffer and buffer titrated into CypD. In both cases no heat exchange was detected, confirming that there was appropriate match of buffer conditions with no indication of dilution effects. The titration experiments were performed in duplicates, with 50-100 µM CypD in the cell and 500-2000 µM peptides in the syringe. For some of the titrations, data from two runs were concatenated to achieve a saturating isotherm. All data was analysed using the Origin®7 (OriginLab, Northampton, MA) software programme."}, "[7]": {"biological_target": "T1, CypD", "assay": "1H-15N HSQC NMR of 15N-CypD, binding site identification", "details": "15N-CypD HSQC, 20-fold excess peptide; 20 mM phosphate, 20 mM NaCl, pH 6.5", "protocol": "NMR spectra were acquired on Bruker Avance III 800 MHz spectrometer equipped with [^1H, ^15N, ^13C]-cryoprobes. […] The same buffer was used for obtaining the ^1H-^15N spectra of ^15N-labelled αSyn at 298 K. Experiments using ^15N-labelled αSyn fibrils were performed at 288 K. ^2H/^15N-labelled CypD was used to make the complex with intact αSyn in order to achieve the optimal conditions to observe shift perturbations, taking into account the size of the complex (~32kD). Backbone ^1H and ^15N resonances of CypD and αSyn were assigned using standard triple resonance to those assigned by ^13C, ^15N, ^1H-triple resonance HNCA, HN(CO)CA, HNCO, HN(CA)CO, CBCA(CO)NH, and CBCANH experiments.\nIn the analyses of the chemical shift perturbation, the chemical-shift difference was expressed as: Δδ = {(ΔH)^2 + (0.15ΔN)^2}^1/2. Values of Δδ greater than 0.07 were considered significant."}, "[8]": {"biological_target": "T1, CypD", "assay": "Isomerisation substrate test by NMR", "format": "biochemical", "protocol": "as §2"}, "[9]": {"system": "human insulin and human lysozyme", "details": "cited from earlier work", "source_text": "An emerging picture is that agents that prevent aggregation can also dissemble amyloid fibrils."}, "[10]": {"system": "tau", "details": "cited from earlier work", "source_text": "Proteins currently known to dissociate amyloid fibrils do so in either an ATP-dependent or –independent manner. Examples of the former include Hsp70, whereas the latter mode can be found in Cyclophilin 40 (Cyp40)[14],[15]. […] The effects of Cyp40 on the tau and αSyn fibrils were attributed to its peptidyl-prolyl isomerase activity."}}, "note": "“Also recorded” adds a separate entry of the source."}
{"compound": "C=CC[C@@H]1/C=C(\\C)C[C@H](C)C[C@H](OC)[C@H]2O[C@@](O)(C(=O)C(=O)N3CCCC[C@H]3C(=O)O[C@H](/C(C)=C/[C@@H]3CC[C@@H](O)[C@H](OC)C3)[C@H](C)[C@@H](O)CC1=O)[C@H](C)C[C@@H]2OC", "note": "[FK506]", "values": [{"measurement": "αSyn aggregation (FKBP inhibitor)", "setting": "[1]", "value": "prevent αSyn aggregation"}]}
{"compound": "CC12CC3CC(C)(C1)CC(N)(C3)C2", "note": "[memantine]", "values": [{"measurement": "Aβ aggregation and preformed Aβ fibrils", "setting": "[2]", "value": "inhibits Αβ aggregation; also recorded: disassembles preformed Aβ fibrils"}]}
{"compound": "Cyclophilin A: Cyclophilin A", "values": [{"measurement": "binding to αSyn", "setting": "[3]", "value": "bind to αSyn, also at the C-terminus as well as to the preNAC sequence"}]}
{"compound": "FKBP12: peptidyl-prolyl isomerase immunophilin protein belonging to the FKBP family, cytoplasmic", "values": [{"measurement": "αSyn aggregation", "setting": "[1]", "value": "promoted αSyn aggregation"}, {"measurement": "binding to αSyn", "setting": "[3]", "value": "shown to bind αSyn"}]}
{"compound": "cyclosporine A [CsA]", "values": [{"measurement": "effect of CsA on exchange cross-peaks (CypD isomerase activity)", "setting": "[4]", "value": "exchange crosspeaks disappear"}, {"measurement": "effect of CsA on exchange cross-peaks (CypD isomerase activity)", "setting": "[4]; listed as Cyclosporine A", "value": "disappearance of the exchange cross-peaks"}, {"measurement": "rescue of αSyn effects on mitochondria", "setting": "[5]", "value": "can be rescued"}]}
{"compound": "epigallocatechin-3-gallate [EGCG]", "values": [{"measurement": "dissociation of αSyn aggregates", "setting": "[1]", "value": "dissociates αSyn aggregates"}, {"measurement": "binding to C-terminus of monomeric αSyn", "setting": "[3]", "value": "binds to the C-terminus of monomeric αSyn"}]}
{"compound": "GVATVAEKTKEQVTN [αSynM, synthetic peptide 51–65 of αSyn, >98% pure]", "values": [{"measurement": "binding to CypD (ITC, in words)", "setting": "[6]", "value": "too weak to yield a reliable binding isotherm; also recorded: binds much more weakly"}, {"measurement": "binding to CypD by NMR (in words)", "setting": "[7]", "value": "only slightly shifted from the positions in the free protein with minimal broadening observed for selected peaks; also recorded: very weak binding"}, {"measurement": "interaction with CypD / isomerisation substrate", "setting": "[8]", "value": "not an isomerisation substrate of CypD"}]}
{"compound": "CC(CN1c2ccccc2Sc2ccccc21)N(C)C", "note": "(centres unmarked) [promethazine]", "values": [{"measurement": "aggregation of human insulin and human lysozyme", "setting": "[9]", "value": "prevents the aggregation of human insulin and human lysozyme; also recorded: depolymerises preformed fibrils"}]}
{"compound": "Cyp40: cytosolic peptidyl prolyl isomerase, co-chaperone to Hsp90", "values": [{"measurement": "dissociation of fibrils", "setting": "[2]; Aβ fibrils", "value": "not amyloid-β (Aβ) fibrils"}, {"measurement": "dissociation of fibrils", "setting": "[1]; αSyn fibrils", "value": "dissociate tau, and αSyn"}, {"measurement": "dissociation of fibrils", "setting": "[10]", "value": "dissociate tau"}]}
